Experiments:
Assay type in all cases: functional
[1] = system: SW-620; assay: Growth inhibition of human SW620 cells by sulforhodamine B assay
[2] = system: A549; assay: Growth inhibition of human A549/ATCC cells by sulforhodamine B assay
[3] = system: UACC-62; assay: Growth inhibition of human UACC62 cells assessed as cell growth at 10^-8 M by sulforhodamine B assay; conditions: read-out: Activity
[4] = system: SK-MEL-5; assay: Growth inhibition of human SK-MEL-5 cells assessed as cell growth at 10^-8 M by sulforhodamine B assay; conditions: read-out: Activity
[5] = system: SF-539; assay: Growth inhibition of human SF539 cells assessed as cell growth at 10^-8 M by sulforhodamine B assay; conditions: read-out: Activity
[6] = system: COLO 205; assay: Growth inhibition of human COLO205 cells assessed as cell growth at 10^-8 M by sulforhodamine B assay; conditions: read-out: Activity
[7] = system: SR; assay: Growth inhibition of human SR cells assessed as cell growth at 10^-8 M by sulforhodamine B assay; conditions: read-out: Activity
[8] = system: BT-549; assay: Growth inhibition of human BT549 cells by sulforhodamine B assay
[9] = Growth inhibition of human Hs 578T cells by sulforhodamine B assay
[10] = system: TK-10; assay: Growth inhibition of human TK10 cells by sulforhodamine B assay
[11] = system: RXF 393; assay: Growth inhibition of human RXF393 cells by sulforhodamine B assay
[12] = system: ACHN; assay: Growth inhibition of human ACHN cells by sulforhodamine B assay
[13] = system: OVCAR-3; assay: Growth inhibition of human OVCAR3 cells by sulforhodamine B assay
[14] = system: IGROV-1; assay: Growth inhibition of human IGROV1 cells by sulforhodamine B assay
[15] = system: DU-145; assay: Growth inhibition of human DU145 cells assessed as cell growth at 10^-4 M by sulforhodamine B assay; conditions: read-out: Activity
[16] = system: UO-31; assay: Growth inhibition of human UO31 cells assessed as cell growth at 10^-4 M by sulforhodamine B assay; conditions: read-out: Activity
[17] = system: IGROV-1; assay: Growth inhibition of human IGROV1 cells assessed as cell growth at 10^-4 M by sulforhodamine B assay; conditions: read-out: Activity
[18] = system: U-251; assay: Growth inhibition of human U251 cells assessed as cell growth at 10^-4 M by sulforhodamine B assay; conditions: read-out: Activity
[19] = system: LOX IMVI; assay: Growth inhibition of human LOXIMVI cells assessed as cell growth at 10^-4 M by sulforhodamine B assay; conditions: read-out: Activity
[20] = system: SF-295; assay: Growth inhibition of human SF295 cells assessed as cell growth at 10^-4 M by sulforhodamine B assay; conditions: read-out: Activity
[21] = system: SR; assay: Growth inhibition of human SR cells assessed as cell growth at 10^-4 M by sulforhodamine B assay; conditions: read-out: Activity
[22] = system: A549; assay: Growth inhibition of human A549/ATCC cells assessed as cell growth at 10^-4 M by sulforhodamine B assay; conditions: read-out: Activity
[23] = system: T47D; assay: Growth inhibition of human T47D cells assessed as cell growth at 10^-6 M by sulforhodamine B assay; conditions: read-out: Activity
[24] = system: SN12C; assay: Growth inhibition of human SN12C cells assessed as cell growth at 10^-6 M by sulforhodamine B assay; conditions: read-out: Activity
[25] = system: TK-10; assay: Growth inhibition of human TK10 cells assessed as cell growth at 10^-6 M by sulforhodamine B assay; conditions: read-out: Activity
[26] = system: A498; assay: Growth inhibition of human A498 cells assessed as cell growth at 10^-6 M by sulforhodamine B assay; conditions: read-out: Activity
[27] = system: LOX IMVI; assay: Growth inhibition of human LOXIMVI cells assessed as cell growth at 10^-6 M by sulforhodamine B assay; conditions: read-out: Activity
[28] = system: SF-268; assay: Growth inhibition of human SF268 cells assessed as cell growth at 10^-6 M by sulforhodamine B assay; conditions: read-out: Activity
[29] = system: NCI-H460; assay: Growth inhibition of human NCI-H460 cells assessed as cell growth at 10^-6 M by sulforhodamine B assay; conditions: read-out: Activity
[30] = system: T47D; assay: Growth inhibition of human T47D cells assessed as cell growth at 10^-7 M by sulforhodamine B assay; conditions: read-out: Activity
[31] = system: TK-10; assay: Growth inhibition of human TK10 cells assessed as cell growth at 10^-7 M by sulforhodamine B assay; conditions: read-out: Activity
[32] = system: ACHN; assay: Growth inhibition of human ACHN cells assessed as cell growth at 10^-7 M by sulforhodamine B assay; conditions: read-out: Activity
[33] = system: 786-0; assay: Growth inhibition of human 786-0 cells assessed as cell growth at 10^-7 M by sulforhodamine B assay; conditions: read-out: Activity
[34] = system: UACC-62; assay: Growth inhibition of human UACC62 cells assessed as cell growth at 10^-7 M by sulforhodamine B assay; conditions: read-out: Activity
[35] = system: UACC-257; assay: Growth inhibition of human UACC257 cells assessed as cell growth at 10^-7 M by sulforhodamine B assay; conditions: read-out: Activity
[36] = system: SK-MEL-2; assay: Growth inhibition of human SK-MEL-2 cells assessed as cell growth at 10^-7 M by sulforhodamine B assay; conditions: read-out: Activity
[37] = system: SF-268; assay: Growth inhibition of human SF268 cells assessed as cell growth at 10^-7 M by sulforhodamine B assay; conditions: read-out: Activity
[38] = system: HT-29; assay: Growth inhibition of human HT-29 cells assessed as cell growth at 10^-7 M by sulforhodamine B assay; conditions: read-out: Activity
[39] = system: MDA-MB-468; assay: Growth inhibition of human MDA-MB-468 cells assessed as cell growth at 10^-8 M by sulforhodamine B assay; conditions: read-out: Activity
[40] = system: BT-549; assay: Growth inhibition of human BT549 cells assessed as cell growth at 10^-8 M by sulforhodamine B assay; conditions: read-out: Activity
[41] = read-out: LC50 (the source's name)
[42] = read-out: pLC50 (the source's name) (converted)

C/C=C(/C)C(=O)O[C@@H]1CC(C)(C)C[C@H]2C3=CC[C@@H]4[C@@]5(C)CCC(=O)C(C)(C)[C@@H]5CC[C@@]4(C)[C@]3(C)CC[C@@]12C(=O)O [LANTADENE A]
GI50 ([1]; read-out: GI50): 4.48 µM
CC50 [1, 41]: > 100 µM
TGI ([1]; read-out: TGI): > 100 µM
GI50 ([1]; read-out: pGI50 (converted)): 4.47 µM
CC50 [1, 42]: > 100 µM
TGI ([1]; read-out: pTGI (converted)): > 100 µM
GI50 ([2]; read-out: GI50): 2.84 µM
CC50 [2, 41]: > 100 µM
TGI ([2]; read-out: TGI): > 100 µM
GI50 ([2]; read-out: pGI50 (converted)): 2.82 µM
CC50 [2, 42]: > 100 µM
TGI ([2]; read-out: pTGI (converted)): > 100 µM
growth at 0.01 µM [3]: 97%
growth at 0.01 µM [4]: 90%
growth at 0.01 µM [5]: 102%
growth at 0.01 µM [6]: 106%
growth at 0.01 µM [7]: 84%
GI50 ([8]; read-out: GI50): 4.73 µM
CC50 [8, 41]: > 100 µM
TGI ([8]; read-out: TGI): > 100 µM
GI50 ([8]; read-out: pGI50 (converted)): 4.68 µM
CC50 [8, 42]: > 100 µM
TGI ([8]; read-out: pTGI (converted)): > 100 µM
GI50 ([9]; read-out: GI50): 5.1 µM
CC50 [9, 41]: > 100 µM
TGI ([9]; read-out: TGI): > 100 µM
GI50 ([9]; read-out: pGI50 (converted)): 5.13 µM
CC50 [9, 42]: > 100 µM
TGI ([9]; read-out: pTGI (converted)): > 100 µM
GI50 ([10]; read-out: GI50): 5.37 µM
CC50 [10, 41]: > 100 µM
TGI ([10]; read-out: TGI): > 100 µM
GI50 ([10]; read-out: pGI50 (converted)): 5.37 µM
CC50 [10, 42]: > 100 µM
TGI ([10]; read-out: pTGI (converted)): > 100 µM
GI50 ([11]; read-out: GI50): 2.41 µM
CC50 [11, 41]: > 100 µM
TGI ([11]; read-out: TGI): 9.93 µM
GI50 ([11]; read-out: pGI50 (converted)): 2.4 µM
CC50 [11, 42]: > 100 µM
TGI ([11]; read-out: pTGI (converted)): 10 µM
GI50 ([12]; read-out: GI50): 4.94 µM
CC50 [12, 41]: > 100 µM
TGI ([12]; read-out: TGI): > 100 µM
GI50 ([12]; read-out: pGI50 (converted)): 4.9 µM
CC50 [12, 42]: > 100 µM
TGI ([12]; read-out: pTGI (converted)): > 100 µM
GI50 ([13]; read-out: GI50): 5.89 µM
CC50 [13, 41]: > 100 µM
TGI ([13]; read-out: TGI): > 100 µM
GI50 ([13]; read-out: pGI50 (converted)): 5.89 µM
CC50 [13, 42]: > 100 µM
TGI ([13]; read-out: pTGI (converted)): > 100 µM
GI50 ([14]; read-out: GI50): 6.75 µM
CC50 [14, 41]: > 100 µM
TGI ([14]; read-out: TGI): > 100 µM
GI50 ([14]; read-out: pGI50 (converted)): 6.76 µM
CC50 [14, 42]: > 100 µM
TGI ([14]; read-out: pTGI (converted)): > 100 µM
growth at 100 µM [15]: 29%
growth at 100 µM [16]: 6%
growth at 100 µM [17]: 30%
growth at 100 µM [18]: 6%
growth at 100 µM [19]: 33%
growth at 100 µM [20]: -6%
growth at 100 µM [21]: 12%
growth at 100 µM [22]: 10%
growth at 1 µM [23]: 93%
growth at 1 µM [24]: 85%
growth at 1 µM [25]: 101%
growth at 1 µM [26]: 72%
growth at 1 µM [27]: 92%
growth at 1 µM [28]: 98%
growth at 1 µM [29]: 92%
growth at 0.1 µM [30]: 99%
growth at 0.1 µM [31]: 102%
growth at 0.1 µM [32]: 107%
growth at 0.1 µM [33]: 94%
growth at 0.1 µM [34]: 85%
growth at 0.1 µM [35]: 93%
growth at 0.1 µM [36]: 115%
growth at 0.1 µM [37]: 101%
growth at 0.1 µM [38]: 101%
growth at 0.01 µM [39]: 95%
growth at 0.01 µM [40]: 99%
